Test results reported in the METLIN SMRT retention time set (Domingo-Almenara et al. 2019).

Assay: gradient 5% acetonitrile 3 min, to 50% in 2 min, to 85% in 15 min, held 3 min, 100 µL/min
Conditions: column: Zorbax Extend-C18 2.1 x 50 mm; eluents: water / acetonitrile, 0.1% formic acid
Summary of the method: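 Retention time was recorded from adduct peaks, which were picked computationally and each inspected manually. Pure standards ran in mixtures of ~100 molecules on HPLC coupled to a quadrupole time-of-flight mass spectrometer, in positive and negative ionization mode, through a Zorbax Extend-C18 column (2.1 × 50 mm, 1.8 μm) at 100 μL/min. Eluents were water and acetonitrile, each with 0.1% formic acid.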

Q: Which RP-LC retention time does the source give for `Cc1ccc(N2CN(CC(=O)NCCC3=CCCCC3)S(=O)(=O)c3cccnc32)cc1` here?
A: The RP-LC retention time was 1050 s.

Q: Which RP-LC retention time does the source give for `CCc1nc2cc(-c3noc(Cc4c(F)cccc4Cl)n3)ccc2o1` here?
A: The RP-LC retention time was 1150 s.

Q: With `CCCCN1N=C(C(=O)N2CCC(C)CC2)S(=O)(=O)c2ccc(C)cc21` as the molecule, how does the RP-LC retention time read?
A: Its RP-LC retention time is 1060 s.

Q: Which RP-LC retention time does the source give for `CC1CC(=O)c2cnc(N3CCN(Cc4ccccc4)CC3)nc2C1` (stereo not given) here?
A: The RP-LC retention time was 643 s.

Q: Which RP-LC retention time does the source give for `O=C(Nc1ccc2c(c1)OCCO2)N1CCC2(CC1)CC(N1CCOCC1)CCO2` (stereo not given) here?
A: The RP-LC retention time was 572 s.

Q: Which RP-LC retention time does the source give for `CC(C)c1ccc(S(=O)(=O)N2CCc3nc(-c4ccccc4)ncc3C2)cc1` here?
A: Its RP-LC retention time is 1230 s.

Q: For `COc1ccc(Cn2c(=O)c3sccc3n(Cc3nc(-c4ccc(F)c(Cl)c4)no3)c2=O)cc1`, which RP-LC retention time is on record?
A: Its RP-LC retention time is 1190 s.

Q: With `Cc1ccc(F)cc1NC(=O)Cn1nc(N(C)C)c2ccccc2c1=O` as the molecule, how does the RP-LC retention time read?
A: Its RP-LC retention time is 860 s.

Q: Which RP-LC retention time does the source give for `CCC(C)NC(=O)Cn1nc(-c2nc(-c3cccc(C)c3)no2)c2ccccc21` (stereo not given) here?
A: The RP-LC retention time was 1170 s.

Q: Which RP-LC retention time does the source give for `CC(Oc1ccccc1F)C(=O)Nc1nc(-c2ccc(S(=O)(=O)N3CCOCC3)cc2)cs1` (stereo not given) here?
A: Its RP-LC retention time is 1010 s.

Q: With `COC(=O)c1cc(S(=O)(=O)N2CCCC2C(=O)Nc2ccc(OC)cc2)cn1C` (stereo not given) as the molecule, how does the RP-LC retention time read?
A: Its RP-LC retention time is 818 s.

Q: For `Cc1nc2cc(N3CCC(C(=O)Nc4ccc5c(c4)OCO5)CC3)cnc2nc1C`, which RP-LC retention time is on record?
A: The RP-LC retention time was 695 s.

Q: With `Cc1ccc(N2C(=O)C3N=NN(Cc4nc(-c5ccccc5C)no4)C3C2=O)cc1C` (stereo not given) as the molecule, how does the RP-LC retention time read?
A: The RP-LC retention time was 1060 s.

Q: With `CC1=CC(=O)CC(C)(C)C1(O)/C=C/C(C)=C\C(=O)O` (stereo not given) as the molecule, how does the RP-LC retention time read?
A: The RP-LC retention time was 683 s.

Q: With `COc1ccc(NS(=O)(=O)c2ccc3c(c2)C(=O)N(C)c2ncccc2O3)cc1F` as the molecule, how does the RP-LC retention time read?
A: The RP-LC retention time was 891 s.

Q: With `Cc1cc(CC(=O)N2CCCn3ccnc3C2C2CCCC2)on1` (stereo not given) as the molecule, how does the RP-LC retention time read?
A: Its RP-LC retention time is 587 s.

Q: For `COc1ccc(-c2nc3cnccn3c2Nc2ccc(C(=O)O)cc2)cc1`, which RP-LC retention time is on record?
A: Its RP-LC retention time is 662 s.

Q: With `CCn1nccc1C(=O)N1CC(Oc2ccc(-c3nc(C)no3)cc2)C1` as the molecule, how does the RP-LC retention time read?
A: The RP-LC retention time was 800 s.

Q: Which RP-LC retention time does the source give for `COCCc1noc(CC2CCOC3(CCN(C(=O)NC(C)(C)C)CC3)C2)n1` (stereo not given) here?
A: The RP-LC retention time was 700 s.

Q: With `CC(=O)N1CCc2cc(N3CC(C(=O)N(C)Cc4ccccc4)CC3=O)ccc21` (stereo not given) as the molecule, how does the RP-LC retention time read?
A: The RP-LC retention time was 697 s.

Q: With `CC(C)(C)c1noc(-c2cccnc2-n2cnc(C(=O)Nc3cccc(F)c3)c2)n1` as the molecule, how does the RP-LC retention time read?
A: Its RP-LC retention time is 1000 s.

Q: With `O=C(Nc1ccc(F)cc1F)C1CCN(S(=O)(=O)c2cc(C(=O)N3CCCC3)cs2)CC1` as the molecule, how does the RP-LC retention time read?
A: The RP-LC retention time was 803 s.

Q: For `COc1cc(-c2nc3cc(C)ccn3c2Nc2ccc(C)cc2)ccc1O`, which RP-LC retention time is on record?
A: The RP-LC retention time was 686 s.

Q: With `Cc1ccc2nc(N3CCN(C(=O)C(C)(C)C)CC3)c(-c3noc(-c4ccccc4)n3)cc2c1` as the molecule, how does the RP-LC retention time read?
A: Its RP-LC retention time is 1370 s.

Q: Which RP-LC retention time does the source give for `Cc1cc(Nc2nc(C(=O)NCCCN3CCOCC3)cc3occc23)ccc1Br` here?
A: The RP-LC retention time was 724 s.

Q: For `CCN1CCN(CCCNC(=O)c2c(N3CCCC3=O)c3cc(F)ccc3n2CC)CC1`, which RP-LC retention time is on record?
A: Its RP-LC retention time is 602 s.

Q: For `CCCNC(=O)C1CCN(c2ccc(SCC(=O)Nc3c(C)cc(C)cc3C)nn2)CC1`, which RP-LC retention time is on record?
A: Its RP-LC retention time is 657 s.

Q: Which RP-LC retention time does the source give for `COc1ccc(C2CC(=O)N(CC(=O)N3CCOCC3)c3ccccc3S2)cc1OC` (stereo not given) here?
A: The RP-LC retention time was 736 s.

Q: For `COc1ccc(CNC(=O)CSc2cc(N3CCN(c4ccc(OC)cc4)CC3)ncn2)cc1`, which RP-LC retention time is on record?
A: Its RP-LC retention time is 1090 s.

Q: With `CC(C)NC(=O)c1cc(N2CCCC2)nc2ccccc12` as the molecule, how does the RP-LC retention time read?
A: The RP-LC retention time was 594 s.

Q: For `CCC(=O)N1CCc2cc(-c3ccc(C(=O)N4CCN(c5ncccn5)CC4)cc3)ccc21`, which RP-LC retention time is on record?
A: The RP-LC retention time was 855 s.

Q: For `CCOC(=O)c1ccc(NC(=O)Cn2cnc3nc(N4CCCC4)ncc3c2=O)cc1`, which RP-LC retention time is on record?
A: The RP-LC retention time was 753 s.

Q: For `O=C(C1=CN(c2cccc(Cl)c2)c2cc(F)ccc2S1(=O)=O)N1CCOCC1`, which RP-LC retention time is on record?
A: Its RP-LC retention time is 811 s.

Q: For `CC(O)c1ccc(-c2ccc(CNCCCn3ccnc3)o2)cc1` (stereo not given), which RP-LC retention time is on record?
A: Its RP-LC retention time is 513 s.

Q: Which RP-LC retention time does the source give for `Cc1ccn2cc(-c3ccc(C)c(NS(=O)(=O)c4ccc(C)c(C)c4)c3)nc2c1` here?
A: The RP-LC retention time was 729 s.
